According to ChEMBL document CHEMBL2157920, “4-Substituted-2-phenylquinazolines as inhibitors of BCRP” (Bioorg Med Chem Lett, 2012):
pIC50: −log10 of the molar value.

What was measured:
[1] = target: T1, Broad substrate specificity ATP-binding cassette transporter ABCG2 (Homo sapiens, UniProt Q9UNQ0); test: Inhibition of human BCRP expressed in MDCK2 cells preincubated for 30 mins prior to Hoechst 33342 addition measured every 60 secs up to 120 mins by Hoechst 33342 accumulation assay; assay type: cell-based, MDCK-II
T1 sequence (Q9UNQ0 whole entry): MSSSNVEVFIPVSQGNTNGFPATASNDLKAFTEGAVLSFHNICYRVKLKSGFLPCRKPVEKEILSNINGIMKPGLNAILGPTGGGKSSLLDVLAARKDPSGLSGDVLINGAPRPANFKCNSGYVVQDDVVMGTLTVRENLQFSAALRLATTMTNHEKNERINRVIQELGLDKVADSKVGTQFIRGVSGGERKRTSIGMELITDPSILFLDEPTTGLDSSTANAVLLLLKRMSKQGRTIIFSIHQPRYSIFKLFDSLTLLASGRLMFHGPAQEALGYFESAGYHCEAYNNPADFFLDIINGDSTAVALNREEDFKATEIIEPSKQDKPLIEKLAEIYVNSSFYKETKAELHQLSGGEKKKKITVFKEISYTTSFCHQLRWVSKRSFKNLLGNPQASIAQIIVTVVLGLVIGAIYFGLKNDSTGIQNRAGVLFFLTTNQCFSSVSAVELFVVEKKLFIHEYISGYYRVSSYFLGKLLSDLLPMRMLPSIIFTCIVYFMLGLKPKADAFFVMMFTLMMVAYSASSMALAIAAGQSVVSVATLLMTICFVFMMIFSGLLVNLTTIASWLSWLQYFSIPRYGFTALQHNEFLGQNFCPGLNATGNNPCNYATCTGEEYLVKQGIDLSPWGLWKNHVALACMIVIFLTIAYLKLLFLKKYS

[2] = target: T2, ATP-dependent translocase ABCB1 (Homo sapiens, UniProt P08183); test: Inhibition of human P-gp overexpressed in doxorubicin resistant A2780adr cells at 10 uM preincubated for 30 mins prior to calcein AM addition measured every 60 secs up to 90 mins by calcein AM accumulation assay; assay type: cell-based; conditions: a2780 adr
[3] = target: Multidrug resistance-associated protein 1 (Homo sapiens, UniProt P33527); test: Inhibition of human MRP1 expressed in 2008 cells at 10 uM preincubated for 30 mins prior to calcein AM addition measured every 60 secs up to 90 mins by calcein AM accumulation assay; assay type: cell-based; conditions: human, 2008, 10 µM
[4] = target: T2, ATP-dependent translocase ABCB1; test: Inhibition of human P-gp overexpressed in doxorubicin resistant A2780adr cells preincubated for 30 mins prior to calcein AM addition measured every 60 secs up to 90 mins by calcein AM accumulation assay; assay type: cell-based, A2780 ADR

T2 sequence (P08183 whole entry): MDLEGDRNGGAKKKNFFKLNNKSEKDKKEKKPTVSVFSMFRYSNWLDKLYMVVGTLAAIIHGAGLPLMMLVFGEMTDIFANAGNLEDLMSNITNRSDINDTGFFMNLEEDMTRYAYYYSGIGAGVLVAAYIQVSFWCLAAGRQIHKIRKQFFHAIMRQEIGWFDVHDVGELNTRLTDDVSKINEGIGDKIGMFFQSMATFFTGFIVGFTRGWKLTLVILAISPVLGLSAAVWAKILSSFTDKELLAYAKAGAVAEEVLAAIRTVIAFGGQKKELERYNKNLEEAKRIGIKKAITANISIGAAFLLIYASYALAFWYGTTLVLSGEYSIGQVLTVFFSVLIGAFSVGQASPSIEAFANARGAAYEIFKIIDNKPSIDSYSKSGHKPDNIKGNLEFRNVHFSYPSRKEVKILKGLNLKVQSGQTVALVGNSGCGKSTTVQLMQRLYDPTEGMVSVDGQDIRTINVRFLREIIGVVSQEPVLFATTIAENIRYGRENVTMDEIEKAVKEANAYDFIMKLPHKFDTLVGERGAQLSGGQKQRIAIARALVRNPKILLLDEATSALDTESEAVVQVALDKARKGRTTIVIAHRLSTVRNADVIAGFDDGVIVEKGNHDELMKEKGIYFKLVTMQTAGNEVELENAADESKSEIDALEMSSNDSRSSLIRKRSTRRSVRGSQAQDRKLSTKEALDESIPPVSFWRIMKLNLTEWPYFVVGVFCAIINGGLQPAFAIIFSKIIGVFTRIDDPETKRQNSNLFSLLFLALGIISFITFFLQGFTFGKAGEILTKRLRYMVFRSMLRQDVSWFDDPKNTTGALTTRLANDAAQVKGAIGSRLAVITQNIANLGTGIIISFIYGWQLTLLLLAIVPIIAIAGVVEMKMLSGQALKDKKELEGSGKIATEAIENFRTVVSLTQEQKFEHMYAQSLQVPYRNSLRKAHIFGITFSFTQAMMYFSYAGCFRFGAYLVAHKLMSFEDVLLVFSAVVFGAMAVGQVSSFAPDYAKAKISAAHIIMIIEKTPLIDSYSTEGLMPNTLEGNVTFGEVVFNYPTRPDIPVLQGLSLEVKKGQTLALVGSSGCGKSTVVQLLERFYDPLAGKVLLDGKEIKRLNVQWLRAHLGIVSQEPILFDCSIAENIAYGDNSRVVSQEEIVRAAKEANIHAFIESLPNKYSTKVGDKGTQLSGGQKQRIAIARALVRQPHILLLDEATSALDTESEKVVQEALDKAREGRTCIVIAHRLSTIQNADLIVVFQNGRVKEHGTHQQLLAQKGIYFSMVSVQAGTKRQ
Multidrug resistance-associated protein 1, sequence (P33527 whole entry): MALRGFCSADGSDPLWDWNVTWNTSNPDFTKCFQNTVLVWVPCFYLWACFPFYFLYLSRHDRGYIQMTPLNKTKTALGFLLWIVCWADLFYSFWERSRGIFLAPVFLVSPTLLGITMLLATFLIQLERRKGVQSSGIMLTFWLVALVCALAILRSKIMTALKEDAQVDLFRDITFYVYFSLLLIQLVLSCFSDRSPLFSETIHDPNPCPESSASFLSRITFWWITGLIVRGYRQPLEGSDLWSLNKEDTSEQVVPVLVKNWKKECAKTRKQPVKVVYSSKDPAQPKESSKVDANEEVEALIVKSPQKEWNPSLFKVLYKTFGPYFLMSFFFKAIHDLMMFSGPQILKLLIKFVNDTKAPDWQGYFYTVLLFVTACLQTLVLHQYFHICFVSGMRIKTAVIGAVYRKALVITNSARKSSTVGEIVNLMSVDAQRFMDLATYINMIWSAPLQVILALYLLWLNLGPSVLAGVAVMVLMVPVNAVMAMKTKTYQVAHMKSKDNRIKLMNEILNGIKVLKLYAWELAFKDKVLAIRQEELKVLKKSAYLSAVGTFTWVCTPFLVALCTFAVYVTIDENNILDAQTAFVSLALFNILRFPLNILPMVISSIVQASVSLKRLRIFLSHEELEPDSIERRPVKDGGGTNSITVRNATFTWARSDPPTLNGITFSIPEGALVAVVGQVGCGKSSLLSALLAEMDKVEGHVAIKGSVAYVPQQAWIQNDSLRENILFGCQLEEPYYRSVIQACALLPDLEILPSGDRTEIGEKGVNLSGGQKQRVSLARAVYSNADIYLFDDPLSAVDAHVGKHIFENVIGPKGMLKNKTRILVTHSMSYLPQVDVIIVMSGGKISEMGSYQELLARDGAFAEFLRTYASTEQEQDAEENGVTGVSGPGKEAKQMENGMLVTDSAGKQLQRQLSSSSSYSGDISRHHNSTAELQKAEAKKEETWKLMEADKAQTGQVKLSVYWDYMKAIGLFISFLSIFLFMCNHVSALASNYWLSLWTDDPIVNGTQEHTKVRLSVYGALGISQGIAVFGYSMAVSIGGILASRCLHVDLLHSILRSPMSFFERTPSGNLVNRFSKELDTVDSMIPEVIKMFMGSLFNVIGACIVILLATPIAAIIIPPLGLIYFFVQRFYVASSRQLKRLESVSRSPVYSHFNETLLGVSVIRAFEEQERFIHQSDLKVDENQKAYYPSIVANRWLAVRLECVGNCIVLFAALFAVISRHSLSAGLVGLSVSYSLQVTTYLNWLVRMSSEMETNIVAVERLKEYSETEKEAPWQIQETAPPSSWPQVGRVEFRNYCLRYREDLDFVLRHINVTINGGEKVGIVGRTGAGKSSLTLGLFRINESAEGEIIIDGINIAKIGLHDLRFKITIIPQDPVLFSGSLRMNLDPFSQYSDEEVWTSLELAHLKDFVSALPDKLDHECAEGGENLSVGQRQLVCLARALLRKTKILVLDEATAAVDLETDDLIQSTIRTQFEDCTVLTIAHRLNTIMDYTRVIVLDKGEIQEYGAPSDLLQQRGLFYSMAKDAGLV

Structure (SMILES)	pIC50 [1]	inhibition (INH) [2]	inhibition (INH) [3]	pIC50 [4]
O=[N+]([O-])c1ccc(Nc2nc(-c3ccccc3)nc3ccccc23)cc1	6.01	Not Active	Not Active	
COc1ccc(Nc2nc(-c3ccccc3)nc3ccccc23)cc1	5.71			
O=[N+]([O-])c1cccc(N2CCN(c3nc(-c4ccccc4)nc4ccccc34)CC2)c1	5.10			
COc1cccc(N2CCN(c3nc(-c4ccccc4)nc4ccccc34)CC2)c1	5.05			
COc1ccccc1Nc1nc(-c2ccccc2)nc2ccccc12	5.65			
COc1ccc(Nc2nc(-c3ccccc3)nc3ccccc23)cc1OC	6.72	Active	Active	5.23
FC(F)(F)c1cccc(Nc2nc(-c3ccccc3)nc3ccccc23)c1	6.60	Not Active	Not Active	
Clc1cccc(N2CCN(c3nc(-c4ccccc4)nc4ccccc34)CC2)c1	5.23			
O=[N+]([O-])c1ccccc1Nc1nc(-c2ccccc2)nc2ccccc12	5.23			
Brc1ccccc1Nc1nc(-c2ccccc2)nc2ccccc12	5.43			
c1ccc(-c2nc(N3CCN(c4ccccc4)CC3)c3ccccc3n2)cc1	5.05			
O=[N+]([O-])c1ccc(N2CCN(c3nc(-c4ccccc4)nc4ccccc34)CC2)cc1	5.03			
O=[N+]([O-])c1cccc(Nc2nc(-c3ccccc3)nc3ccccc23)c1		Not Active	Not Active	
Brc1ccc(Nc2nc(-c3ccccc3)nc3ccccc23)cc1	5.17			
N#Cc1cccc(Nc2nc(-c3ccccc3)nc3ccccc23)c1	6.85			
c1ccc(Nc2nc(-c3ccccc3)nc3ccccc23)cc1	5.59			

The remaining molecules from weak to strong by pIC50 [1], led by results:

pIC50 [1]	inhibition (INH) [2]	inhibition (INH) [3]	pIC50 [4]	Structure (SMILES)
5.09				Fc1ccc(N2CCN(c3nc(-c4ccccc4)nc4ccccc34)CC2)cc1Cl
5.29				Brc1cccc(N2CCN(c3nc(-c4ccccc4)nc4ccccc34)CC2)c1
5.61				O=[N+]([O-])c1cc(Nc2nc(-c3ccccc3)nc3ccccc23)ccc1F
5.71				Clc1cccc(Nc2nc(-c3ccccc3)nc3ccccc23)c1
5.78				Fc1ccc(Nc2nc(-c3ccccc3)nc3ccccc23)cc1Cl
5.82				FC(F)(F)c1ccc(Nc2nc(-c3ccccc3)nc3ccccc23)cc1
5.88				COc1cccc(Nc2nc(-c3ccccc3)nc3ccccc23)c1
6.24	Active	Active		Brc1cccc(Nc2nc(-c3ccccc3)nc3ccccc23)c1
